The chromatographic logP is lipophilicity estimated from chromatographic retention. Read a high chromatographic logP as a more lipophilic compound.

Experimental findings from patent publication US20100167931A1, “HETEROCYCLICALLY SUBSTITUTED HETEROCYCLYLCARBOXYLIC ACID DERIVATIVES” (Bayer CropScience AG, priority 2007, published 2010) are described below.

Data set [1] is described as follows: logP determination by HPLC on reverse-phase column (EEC Directive 79/831 Annex V.A8). Type of data set: physicochemical. To be noted: for chromatographic logP: reverse-phase C18 HPLC column. Here is the method: The logP values given in the tables and preparation examples above were determined in accordance with EEC Directive 79/831 Annex V.A8 by HPLC (High Performance Liquid Chromatography) on a reverse-phase column (C 18). Temperature: 43° C. The determination was carried out by LC-MS at pH 2.7 using 0.1% aqueous formic acid and acetonitrile (containing 0.1% formic acid) as mobile phases; linear gradient from 10% acetonitrile to 95% acetonitrile. Calibration was carried out using unbranched alkan-2-ones (having 3 to 16 carbon atoms) with known logP values (determination of the logP values by the retention times using linear interpolation between two successive alkanones).

Data set [2] has as its system Boophilus microplus. The data set is described as follows: Boophilus microplus test (injection). To be noted: application rate of 20 μg/animal. It is filed as in vivo. The procedure:
Boophilus microplus Test (Injection) Solvent: dimethyl sulphoxide To produce a suitable preparation of active compound, 1 part by weight of active compound is mixed with the stated amount of solvent, and the concentrate is diluted with solvent to the desired concentration. The solution of active compound is injected into the abdomen (Boophilus microplus), the animals are transferred into dishes and stored in a climatized room. After the desired period of time, the effect in % is determined. 100% means that none of the ticks has laid any fertile eggs.

Data set [3] deals with green peach aphid (Myzus persicae). The data set is described as follows: Activity increase by ammonium/phosphonium salts in combination with penetrants, Myzus persicae test. Type of data set: in vivo. To be noted: 20 ppm, bell pepper plants. The procedure: Activity Increase by Ammonium/Phosphonium Salts in Combination with Penetrants Myzus persicae Test
Solvent: 7 parts by weight of dimethylformamide
Emulsifier: 2 parts by weight of alkylaryl polyglycol ether
To produce a suitable preparation of active compound, 1 part by weight of active compound is mixed with the stated amounts of solvent and emulsifier, and the concentrate is diluted with emulsifier-containing water to the desired concentration. If the addition of ammonium salts or ammonium salts and penetrants is required, these are in each case added in a concentration of 1000 ppm after dilution to the finished solution of the preparation.
Bell pepper plants (Capsicum annuum) which are heavily infested by the green peach aphid (Myzus persicaei) are treated by being sprayed with the active compound preparation at the desired concentration.
After the desired period of time, the kill in % is determined. 100% means that all animals have been killed; 0% means that none of the animals have been killed.

Where [4] appears, read: HPLC reverse-phase C 18, 43° C., pH 2.7, 0.1% aqueous formic acid and acetonitrile.
The mark [5] stands for this setting: intermediates of the formula (IV), HPLC reverse-phase C18, 43° C., pH 2.7 (0.1% aqueous formic acid/acetonitrile).
The mark [6] stands for this setting: intermediates of the formula (V), HPLC reverse-phase C18, 43° C., pH 2.7 (0.1% aqueous formic acid/acetonitrile).
Setting [7] is: intermediates of the formula (VI), HPLC reverse-phase C18, 43° C., pH 2.7 (0.1% aqueous formic acid/acetonitrile).

On to `N#CC(C#N)c1c(Cl)cncc1Cl` [2-(3,5-dichloropyridin-4-yl)malononitrile], for which the chromatographic logP in data set [1] (setting [4]) was determined as 0.9.

Take `CC(C)C(C)Nc1c(-n2nc(C(F)(F)F)cc2C(F)(F)F)c(Cl)nc2c(C(=O)NS(C)(=O)=O)cnn12` (centres unmarked) [Example I-4]: the “effect (no fertile eggs laid)” value in data set [2] is not below 80%. As to `CC(C)Nc1c(-n2nc(C(F)(F)F)cc2C(F)(F)F)c(Cl)nc2c(C(=O)O)cnn12` [Example I-20], the logP result in data set [1] (setting [4]) is listed as “m/z 457, logP 3.11”. Same read-out and setting: to `O=C(O)c1cnn2c(NCC3CC3)c(-n3nc(C(F)(F)F)cc3C(F)(F)F)c(Cl)nc12` [Example I-23] belongs “m/z 469, logP 3.22”; to `CC(C)C(C)Nc1c(-n2cc(Cl)cn2)c(Cl)nc2c(C(=O)O)cnn12` (centres unmarked) [Example I-25], “m/z 383, logP 2.81”. With `CC(C)Nc1c(-c2ncccc2Cl)c(Cl)nc2c(C(=O)NS(C)(=O)=O)cnn12` [Example I-32], in data set [3] (+AS 1000 ppm), the “Kill (%) after 6 d +AS 1000 ppm” value came out at 60%. In addition, the “Kill (%) after 6 d +AS + RME in each case 1000 ppm” value in data set [3] (+AS + RME in each case 1000 ppm) came out at 90%. Besides, the “Kill (%) after 6 d” value in data set [3] (active compound alone) is given as 10%. As to `Cc1nn(C)c(-c2c(Cl)nc3c(C(=O)O)cnn3c2NC(C)C)c1Cl` [Example I-57], in data set [1] (setting [4]), the logP result is listed as “logP 2.20”.

As to `COC(=O)c1cnn2c(Cl)c(-n3nc(C)cc3C)c(Cl)nc12` [Example V-1, Methyl 5,7-dichloro-6-(3,5-dimethyl-1H-pyrazol-1-yl)pyrazolo[1,5-a]pyrimidine-3-carboxylate], in data set [1] (setting [4]), the chromatographic logP was found to be 2.16. The same measure, in the same setting: for `COC(=O)c1cnn2c(Cl)c(-c3ncc(Cl)cc3Cl)c(Cl)nc12` [Example V-2, Methyl 5,7-dichloro-6-(3,5-dichloropyridin-2-yl)pyrazolo[1,5-a]pyrimidine-3-carboxylate] the value was 3.12; for `COC(=O)c1cnn2c(O)c(-n3nc(C)cc3C)c(O)nc12` [IV-1, Methyl 6-(3,5-dimethyl-1H-pyrazol-1-yl)-5,7-dihydroxypyrazolo[1,5-a]pyrimidine-3-carboxylate], 0.41.

As to `COC(=O)c1cnn2c(O)c(-c3ncc(Cl)cc3Cl)c(O)nc12` [IV-2, Methyl 6-(3,5-dichloropyridin-2-yl)-5,7-dihydroxypyrazolo[1,5-a]pyrimidine-3-carboxylate], the chromatographic logP in data set [1] (setting [4]) came to 0.74. On to `COC(=O)c1cnn2c(O)c(-n3nc(C(F)(F)F)cc3C(F)(F)F)c(O)nc12` [IV-3], for which the logP result in data set [1] (setting [5]) is reported as “m/z 412, logP 1.37”. Still for that read-out and setting: to `COC(=O)c1cnn2c(O)c(-n3cc(Cl)cn3)c(O)nc12` [IV-4] belongs “m/z 310, logP 0.43”. On the same count and under the same terms, to `COC(=O)c1cnn2c(O)c(-c3nc(C)sc3C)c(O)nc12` [IV-5] belongs “m/z 321, logP 0.43”; to `COC(=O)c1cnn2c(O)c(-c3cncc(Br)c3)c(O)nc12` [IV-15], “logP 0.78”. On the same count and under the same terms, for `COC(=O)c1cnn2c(O)c(-c3c(Cl)c(C)nn3C)c(O)nc12` [IV-17] the value was “logP 0.59”; for `COC(=O)c1cnn2c(O)c(-c3ncc(C(F)(F)F)cc3F)c(O)nc12` [IV-19], “logP 0.91”; for `COC(=O)c1cnn2c(O)c(-c3ncccc3C(F)(F)F)c(O)nc12` [IV-20], “logP 0.65”. Regarding `COC(=O)c1cnn2c(Cl)c(-n3nc(C(F)(F)F)cc3C(F)(F)F)c(Cl)nc12` [V-3], the logP entry in data set [1] (setting [6]) is “m/z 448, logP 3.64”.

As to `COC(=O)c1cnn2c(Cl)c(-n3cc(Cl)cn3)c(Cl)nc12` [V-5], in data set [1] (setting [6]), the logP result is recorded as “m/z 346, logP 2.50”. `COC(=O)c1cnn2c(Cl)c(-c3c(C)nn(C)c3C)c(Cl)nc12` [V-8]: the logP result in data set [1] (setting [6]) is “m/z 354, logP 1.88”.

Regarding `COC(=O)c1cnn2c(Cl)c(-c3c(Cl)c(C)nn3C)c(Cl)nc12` [V-18], the logP entry in data set [1] (setting [6]) is on record as “logP 2.67”. On the same count and under the same terms, to `COC(=O)c1cnn2c(Cl)c(-c3ncccc3C(F)(F)F)c(Cl)nc12` [V-21] belongs “logP 2.61”. Consider `COC(=O)c1cnn2c(NCC(F)(F)F)c(-n3nc(C(F)(F)F)cc3C(F)(F)F)c(Cl)nc12` [VI-2, Methyl 6-[3,5-bis(trifluoromethyl)-1H-pyrazol-1-yl]-5-chloro-7-[(2,2,2-trifluoroethyl)amino]-pyrazolo[1,5-a]pyrimidine-3-carboxylate], for which the chromatographic logP in data set [1] (setting [4]) amounted to 3.79. Take `COC(=O)c1cnn2c(NC(C)C(C)C)c(-n3cc(Cl)cn3)c(Cl)nc12` (centres unmarked) [VI-9]: the logP result in data set [1] (setting [7]) is recorded as “m/z 397, logP 3.59”. On the same count and under the same terms, for `COC(=O)c1cnn2c(NC(C)C)c(-c3ncc(F)cc3F)c(Cl)nc12` [VI-11] the value was “m/z 382, logP 2.76”. On the same count and under the same terms, for `COC(=O)c1cnn2c(NC(C)C(F)(F)F)c(-c3c(C)nn(C)c3C)c(Cl)nc12` (centres unmarked) [VI-12] the value was “m/z 431, logP 2.54”.
